Several values for one entry are separate records, joined by “and”; a condition that tells them apart may be missing. Equal values may be shown once.
Columns and labels:
[1] = target: T1, ANAP-incorporated TRPM8 (Mus musculus, UniProt Q8R4D5, I865X); format: cell-based; parameters: Shifts in ANAP emission, Ave: unit: nm; details: ANAP incorporation site I865
T1 construct: expressed in transfected cells; host or cells: HEK293 cells, co-transfected with the pANAP vector
Protocol: (§1) As fluorescence emission peak of ANAP shifts to a longer wavelength in more hydrophilic environment, we measured the shift in ANAP emission peak to report conformational changes. Fluorescence properties of ANAP may also be affected by other factors such as temperature and pH[31], so we performed our ANAP experiments always at room temperature (22 ± 1°C). To control for changes in solution pH, we added 3 mM HEPES in ANAP imaging solution to buffer the pH at 7.2. We genetically integrated ANAP into a specific site on TRPM8 with special tRNA and synthetase encoded by pANAP vector (Fig. 5d).
(§2) L-ANAP methyl ester was purchased from AsisChem. pANAP vector was purchased from Addgene. ANAP was incorporated into TRPM8 by introducing a TAG amber stop codon mutation as previously reported. Briefly, after co-transfection of both TRPM8 and pANAP vectors, ANAP was directly added to the culture medium to the final concentration of 20 µM. After 1–2 days, ANAP-containing culture medium was completely changed. Cells were further cultured in ANAP-free medium overnight before experiments.
(§3) ANAP fluorescence was excited by the Ar laser with a 375/28 excitation filter, a T400lp dichroic mirror, and a 435LP emission filter on an inverted fluorescence microscope (Nikon TE2000-U) using a ×40 oil-immersion objective (NA 1.3). Emission spectrum of ANAP was imaged with an Acton SpectraPro 2150i spectrograph in conjunction with an optiMOS CCD camera (Qimaging, USA). We determined the ANAP emission peak value by fitting the emission spectrum with a skewed Gauss distribution in Igor Pro version 6.1 (WaveMatrix), and then the difference in emission peak values measured in the absence and presence of menthol was reported as the shift of ANAP emission.

[2] = target: T2, ANAP-incorporated TRPM8 (Mus musculus, UniProt Q8R4D5, T795X); format: cell-based; parameters: Shifts in ANAP emission, Ave: unit: nm; details: ANAP incorporation site T795; average shift, menthol activated vs resting state
T2 construct: expressed in transfected cells; host or cells: HEK293 cells, co-transfected with the pANAP vector
Protocol: as §1, §2, §3

[3] = target: T3, ANAP-incorporated TRPM8 (Mus musculus, UniProt Q8R4D5, V791X); format: cell-based; parameters: Shifts in ANAP emission, Ave: unit: nm
T3 construct: expressed in transfected cells; host or cells: HEK293 cells, co-transfected with the pANAP vector
Protocol: as §1, §2, §3

[4] = target: T4, ANAP-incorporated TRPM8 (Mus musculus, UniProt Q8R4D5, S820X); format: cell-based; parameters: Shifts in ANAP emission, Ave: unit: nm; details: ANAP incorporation site S820; average shift, menthol activated vs resting state
T4 construct: expressed in transfected cells; host or cells: HEK293 cells, co-transfected with the pANAP vector
Protocol: as §1, §2, §3

[5] = target: T5, ANAP-incorporated TRPM8 (Mus musculus, UniProt Q8R4D5, L817X); format: cell-based; parameters: Shifts in ANAP emission, Ave: unit: nm; details: ANAP incorporation site L817; average shift, menthol activated vs resting state
T5 construct: expressed in transfected cells; host or cells: HEK293 cells, co-transfected with the pANAP vector
Protocol: as §1, §2, §3

[6] = target: T6, ANAP-incorporated TRPM8 (Mus musculus, UniProt Q8R4D5, Q894X); format: cell-based; parameters: Shifts in ANAP emission, Ave: unit: nm; details: ANAP incorporation site Q894
T6 construct: expressed in transfected cells; host or cells: HEK293 cells, co-transfected with the pANAP vector
Protocol: as §1, §2, §3

[7] = target: T7, ANAP-incorporated TRPM8 (Mus musculus, UniProt Q8R4D5, P952X); format: cell-based; parameters: Shifts in ANAP emission, Ave: unit: nm; details: ANAP incorporation site P952; average shift, menthol activated vs resting state
T7 construct: expressed in transfected cells; host or cells: HEK293 cells, co-transfected with the pANAP vector
Protocol: as §1, §2, §3

[8] = target: T8, ANAP-incorporated TRPM8 (Mus musculus, UniProt Q8R4D5, S966X); format: cell-based; parameters: Shifts in ANAP emission, Ave: unit: nm; details: ANAP at S966
T8 construct: expressed in transfected cells; host or cells: HEK293 cells, co-transfected with the pANAP vector
Protocol: as §1, §2, §3

[9] = tested on: ANAP-incorporated TRPM8 mutants; test: patch-clamp test of function of ANAP-incorporated TRPM8 mutants; format: cell-based, mouse; details: Menthol 1 mM
Protocol: as §2
Patch-clamp recordings were performed with a HEKA EPC10 amplifier controlled by PatchMaster software (HEKA). Whole-cell recordings were performed at ±80 mV. Patch pipettes were prepared from borosilicate glass and fire-polished to resistance of ~4 MΩ. For whole-cell recording, serial resistance was compensated by 60%. For single-channel recordings, patch pipettes were fire-polished to a higher resistance of 6-to-10 MΩ and then recorded in the inside-out configuration. To maximize the chance of obtaining a patch with only one channel, single-channel recordings were performed about 8 h after transfection. A solution with 130 mM NaCl, 10 mM glucose, 0.2 mM EDTA, and 3 mM HEPES (pH 7.2) was used in both bath and pipette for either whole-cell or single-channel recordings. Membrane potential was clamped at +80 mV for single-channel recordings. Current was sampled at 10 kHz and filtered at 2.9 kHz. All recordings were performed at room temperature (22 °C) with the maximum variation of 1 °C.
Supplementary Table 1. ANAP- incorporated TRPM8 mutants. The function of these
ANAP- incorporated mutants was accessed by patch- clamp recordings. Menthol (1 mM)
was perfused to activate a mutant channel.

[10] = average shift, menthol activated vs resting state

With `CC(C)[C@@H]1CC[C@@H](C)C[C@H]1O` [menthol, (−)-menthol] the Shifts_ave [1, 10] was 0.00167 nm, the “Emission Peak at menthol activated state” value ([1]; single measurement) was 471.49 nm and 482.04 nm and 478.09 nm and 488.42 nm and 478.8 nm and 481.12 nm and the Shifts_ave [2] was 1.996 nm. For the same compound, the “Shifts in ANAP emission, Ave” value ([3]; ANAP at V791) was 2.05, the Shifts_ave ([3]; ANAP incorporation site V791, average shift, menthol activated vs resting state) was 2.05 nm and the Shifts_ave [4] was 0.28 nm. The Shifts_ave [5] was 0.801 nm, the Shifts_ave [6, 10] was 1.82 nm and the “Emission Peak at menthol activated state” value ([6]; single measurement) was 487.18 nm and 484.04 nm and 488.11 nm and 490.92 nm and 483.4 nm. The Shifts_ave [7] was 1.08 nm, the “Shifts in ANAP emission, Ave” value [8] was 2.10 and the Menthol activation ([9]; A875ANAP (S5)) was “YES”. The Menthol activation ([9]; D920ANAP (Between S5 and S6)) was “YES”, the Menthol activation ([9]; I962ANAP (S6)) was “YES” and the Menthol activation ([9]; L774ANAP (S2)) was “YES”. For the same compound, the Menthol activation ([9]; L817ANAP (S3)) was “YES”, the Menthol activation ([9]; L864ANAP (S5)) was “YES” and the Menthol activation ([9]; L939ANAP (Between S5 and S6)) was “YES”. For the same compound, the Menthol activation ([9]; N789ANAP (S2S3 linker)) was “YES”, the Menthol activation ([9]; N821ANAP (S3-S4 linker)) was “YES” and the Menthol activation ([9]; N852ANAP (S4)) was “YES”. The Menthol activation ([9]; N947ANAP (Between S5 and S6)) was “YES”, the Menthol activation ([9]; P734ANAP (S1)) was “YES” and the Menthol activation ([9]; P952ANAP (Between S5 and S6)) was “YES”. For the same compound, the Menthol activation ([9]; P958ANAP (Between S5 and S6)) was “YES”, the Menthol activation ([9]; S819ANAP (S3-S4 linker)) was “YES” and the Menthol activation ([9]; S820ANAP (S3-S4 linker)) was “YES”. The Menthol activation ([9]; S823ANAP (S3-S4 linker)) was “YES”, the Menthol activation ([9]; S824ANAP (S4)) was “YES” and the Menthol activation ([9]; S921ANAP (Between S5 and S6)) was “YES”. The Menthol activation ([9]; S966ANAP (S6)) was “YES”, the Menthol activation ([9]; T795ANAP (S2S3 linker)) was “YES” and the Menthol activation ([9]; V791ANAP (S2S3 linker)) was “YES”. For the same compound, the Menthol activation ([9]; V876ANAP (S5)) was “YES”, the Menthol activation ([9]; W954ANAP (Between S5 and S6)) was “YES” and the Menthol activation ([9]; Y787ANAP (S2)) was “YES”. For the same compound, the Menthol activation ([9]; Y808ANAP (S3)) was “YES”.
